Results taken from ChEMBL document CHEMBL4033778, “Species-Selective Pyrimidineamine Inhibitors of Trypanosoma brucei S-Adenosylmethionine Decarboxylase” (J Med Chem, 2018).

Experiments:
[1] = Inhibition of recombinant Trypanosoma brucei N-terminal His6-tagged AdoMetDC/prozyme hetrodimer expressed in Escherichia coli BL21/DE3 cells at pH 7.2 by RapidFire-MS-based enzyme activity assay
[2] = biological target: T1, S-adenosylmethionine decarboxylase proenzyme (Homo sapiens, UniProt P17707); assay: Inhibition of recombinant human N-terminal His6-tagged AdoMetDC expressed in Escherichia coli BL21/DE3 cells at pH 7.2 by RapidFire-MS-based enzyme activity assay
T1 sequence (P17707 whole entry): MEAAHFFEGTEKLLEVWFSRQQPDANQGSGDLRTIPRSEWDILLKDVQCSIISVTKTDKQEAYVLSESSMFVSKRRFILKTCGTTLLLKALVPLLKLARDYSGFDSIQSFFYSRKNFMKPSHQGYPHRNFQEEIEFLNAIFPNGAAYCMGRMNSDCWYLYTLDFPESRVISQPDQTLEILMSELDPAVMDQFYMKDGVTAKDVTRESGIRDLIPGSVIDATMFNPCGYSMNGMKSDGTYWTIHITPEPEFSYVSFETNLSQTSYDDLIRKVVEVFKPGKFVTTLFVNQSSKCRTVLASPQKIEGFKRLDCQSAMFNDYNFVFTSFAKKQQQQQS

[3] = biological target: T2, S-adenosylmethionine decarboxylase proenzyme (Homo sapiens) (UniProt P17707); assay: Inhibition of recombinant human N-terminal His6-tagged AdoMetDC expressed in Escherichia coli BL21/DE3 cells at 180 uM at pH 7.2 by RapidFire-MS-based enzyme activity assay
T2 sequence (whole entry): T1 sequence (P17707 whole entry)

IC50 [2] [µM]	inhibition [3] [%]	Structure (SMILES)	IC50 [1] [µM]
> 21		Cc1cc(Nc2cc(Cl)cc(-c3ccc4c(c3)OCO4)c2)nc(N)n1	6.2
> 180		Cc1cc(Nc2cc(Cl)cc(-c3ccc(Cl)c(C(F)(F)F)c3)c2)nc(N)n1	53
> 180		Cc1cc(Nc2cc(Cl)cc(-c3cc4ccccc4s3)c2)nc(N)n1	41
	36	CCOc1cc(Br)cc(Nc2cc(C)nc(N)n2)c1	6
> 180		Cc1cc(Nc2ccc(C(C)C)cc2)nc(N)n1	> 180
> 180		Cc1cc(C)cc(Nc2cc(C)nc(N)n2)c1	141
> 180		Cc1cc(Nc2cc(Cl)cc(-c3ccc4nonc4c3)c2)nc(N)n1	27
> 180		Cc1cc(Nc2cc(Cl)cc(-c3cnn(C)c3)c2)nc(N)n1	164
> 63		Cc1ccc(-c2cc(Cl)cc(Nc3cc(C)nc(N)n3)c2)cc1	4.6
	23	CSc1cccc(Nc2cc(C)nc(N)n2)c1	149
> 21		Cc1cc(Nc2cc(Cl)cc(-c3ccc(F)cc3)c2)nc(N)n1	1.1
> 21		Cc1cc(Nc2cc(Cl)cc(-c3ccc(C(F)(F)F)cc3)c2)nc(N)n1	4.7
> 180		Cc1cc(Nc2cc(-c3ccccc3)cc(-c3ccccc3)c2)nc(N)n1	> 180
> 180		Cc1cc(Nc2cc(Cl)cc(-c3cccc(Cl)c3)c2)nc(N)n1	81
> 180		Cc1cc(Nc2ccc(-c3cc(Cl)cc(Cl)c3)cc2)nc(N)n1	> 180
> 63		Cc1cc(Nc2cc(Cl)cc(-c3ccc(Cl)cc3)c2)nc(N)n1	1.7

IC50 [2] [µM]	inhibition [3] [%]	Structure (SMILES)	IC50 [1] [µM]
> 180		CCc1ccc(Nc2cc(C)nc(N)n2)cc1	> 180
> 180		Cc1cc(Nc2cccc(F)c2)nc(N)n1	> 180
> 180		Cc1cc(Nc2cc(Cl)cc(-c3cncnc3)c2)nc(N)n1	> 180
> 180		Cc1cc(Nc2cc(Cl)cc(-c3ccc(Cl)c(Cl)c3)c2)nc(N)n1	102
> 180		Cc1cc(Nc2cc(F)cc(F)c2)nc(N)n1	180
> 180		Cc1cc(Nc2cc(Cl)cc(-c3ccc(-c4ccccc4)cc3)c2)nc(N)n1	167
> 180		COc1ccc(-c2cc(Cl)cc(Nc3cc(C)nc(N)n3)c2)cc1	2.3
> 180		Cc1cc(Nc2cc(Cl)cc(-c3ccc4ccccc4c3)c2)nc(N)n1	57
> 180		Cc1cc(Nc2cc(F)cc(Cl)c2)nc(N)n1	32
> 180		CCc1cc(Br)cc(Nc2cc(C)nc(N)n2)c1	7.6
> 180		Cc1cc(Nc2cc(Br)cc(OCC(C)C)c2)nc(N)n1	11
> 180		CCCCOc1cc(Br)cc(Nc2cc(C)nc(N)n2)c1	4.5
> 7		Cc1cc(Nc2cc(Cl)cc(-c3ccc(C#N)cc3)c2)nc(N)n1	7.6
> 180		Cc1cc(Nc2cc(Cl)cc(-c3ccccc3Cl)c2)nc(N)n1	26
> 180		CCc1cc(Nc2cc(C)nc(N)n2)cc(-c2ccc(F)cc2)c1	2.7
> 180		Cc1cc(Nc2cc(Cl)cc(-c3ccc(O)cc3)c2)nc(N)n1	143

Second part, the molecule before the results:

Structure (SMILES)	IC50 [2] [µM]	inhibition [3] [%]	IC50 [1] [µM]
Cc1cc(Nc2cc(C(=O)Nc3cc(Cl)cc(Cl)c3)cc(C(=O)Nc3cc(Cl)cc(Cl)c3)c2)nc(N)n1	> 180		> 180
CC(C)c1cc(Nc2cc(Cl)cc(Cl)c2)nc(N)n1	> 180		12
Cc1cc(Nc2cc(Cl)cc(C#N)c2)nc(N)n1		29	3.9
Cc1cc(Nc2cc(C(=O)O)cc(C(=O)O)c2)nc(N)n1	> 180		> 180
CSc1ccccc1Nc1cc(C)nc(N)n1	> 180		> 180
Nc1cccc(Nc2cc(Cl)cc(Cl)c2)n1	> 180		> 180
Cc1cc(Nc2cc(C(C)(C)C)cc(C(C)(C)C)c2)nc(N)n1	> 63		> 63
Cc1cc(Nc2ccc(Cl)cc2C)nc(N)n1	> 180		> 180
Cc1cc(Nc2cc(S(C)(=O)=O)cc(S(C)(=O)=O)c2)nc(N)n1		39	1.5
Nc1cc(Nc2cc(Cl)cc(Cl)c2)ccn1	> 180		22
Cc1cc(Nc2cc(Cl)cc(-c3cc(C(F)(F)F)cc(C(F)(F)F)c3)c2)nc(N)n1	> 180		28
CCc1cc(Nc2cc(Cl)cc(Cl)c2)nc(N)n1		36	3
Cc1cc(Nc2cc(Cl)c(N(C)C)c(Cl)c2)nc(N)n1	> 180		> 180
Cc1cc(Nc2cc(C(F)(F)F)cc(C(F)(F)F)c2)nc(N)n1	> 180		11
Cc1cc(Nc2cc(Cl)cc(-c3cc4ccccc4c4ccccc34)c2)nc(N)n1	> 180		> 180
CNc1nc(C)cc(Nc2cc(Cl)cc(Cl)c2)n1	> 63		> 63
Cc1cc(NCCc2cc(Cl)cc(Cl)c2)nc(N)n1		29	28
Cc1cc(Nc2cc(Cl)c(N3CCOCC3)c(Cl)c2)nc(N)n1	> 180		> 180
Cc1cc(N(C)c2cc(Cl)cc(Cl)c2)nc(N)n1	> 180		81

Structure (SMILES)	IC50 [2] [µM]	inhibition [3] [%]	IC50 [1] [µM]
Nc1nc(Nc2cc(Cl)cc(Cl)c2)cc(C(F)(F)F)n1	> 180		> 180
Cc1cc(NCc2cc(Cl)cc(Cl)c2)nc(N)n1	> 180		139
Cc1cc(Nc2cc(Cl)c(F)c(Cl)c2F)nc(N)n1	> 63		2.2
Cc1cc(Nc2cc(Cl)cc(Cl)c2)cc(N)n1	> 180		15
Nc1nc(Nc2cc(Cl)cc(Cl)c2)cc(N2CCOCC2)n1	> 180		> 180
Cc1cc(Nc2ccccc2)nc(N)n1	> 180		> 180
Cc1cc(Nc2ccc(C(F)(F)F)cc2)nc(N)n1	> 180		> 180
Cc1cc(Nc2ccccc2Br)nc(N)n1	> 180		> 180
Nc1nc2c(c(Nc3cc(Cl)cc(Cl)c3)n1)CCC2	> 21		12
Cc1cc(Nc2cc(Cl)cc(S(F)(F)(F)(F)F)c2)nc(N)n1	> 180		16
Cc1cc(Nc2cc(Cl)c(C)c(Cl)c2)nc(N)n1	> 63		20
Cc1cc(Nc2ccccc2C)nc(N)n1	> 180		> 180
Cc1cc(Sc2cc(Cl)cc(Cl)c2)nc(N)n1	> 180		> 180
Cc1cc(Nc2cc(Br)cc(S(F)(F)(F)(F)F)c2)nc(N)n1	> 180		8.7
Nc1ccnc(Nc2cc(Cl)cc(Cl)c2)c1	> 180		> 180
Cc1cc(Nc2cc(Cl)cc(Cl)c2)nc(N(C)C)n1	> 180		> 180
Cc1cc(Nc2cc(Cl)c(Cl)c(Cl)c2)nc(N)n1	> 63		11
Cc1cc(Nc2cc(Cl)c(N3CCCCC3)c(Cl)c2)nc(N)n1	> 180		> 180
Cc1cc(Nc2cc(Cl)c(OC(F)F)c(Cl)c2)nc(N)n1	> 63		> 63
